According to patent publication US20210145801A1, “THERAPY FOR PROTEIN MISFOLDING DISEASE” (WREN THERAPEUTICS LIMITED, priority 2018, published 2021):
Entries after “also recorded” stand apart in the source; their conditions may differ.

Target: T1, Aβ42 (Homo sapiens, UniProt P05067)
T1 construct: made in house; host or cells: E. coli BL21 Gold (DE3)
Assay: Seeded Aβ42 aggregation kinetics (2% or 50% preformed fibril seeds)
Format: biochemical
Conditions: 2 μM Aβ42; 50% seeds; up to 20-fold excess
Procedure: For the seeded experiments, preformed fibrils were prepared just prior to the experiment. Kinetic experiments were set up as described above for 5 μM Aβ42 samples in 20 mM sodium phosphate buffer, pH 8 with […] EDTA, 0.02% NaN3 and 20 μM ThT. The ThT fluorescence was monitored for 3 hours to verify the formation of fibrils. Samples were then collected from the wells into low-binding tubes. Under the considered conditions (i.e. 5 μM Aβ42), the monomer concentration is negligible at equilibrium. The final concentration of fibrils, in monomer equivalents, was considered equal to the initial concentration of monomer. Fibrils were then added to freshly prepared monomer in order to reach either 2% or 50% final concentration of seeds in the absence or the presence of Netoglitazone.
Inhibitors can interfere with the aggregation process by inhibiting one or more of the individual microscopic steps. […]

T1 sequence (P05067 671-713): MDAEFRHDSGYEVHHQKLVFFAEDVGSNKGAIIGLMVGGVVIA

O=C1NC(=O)C(Cc2ccc3cc(OCc4ccccc4F)ccc3c2)S1 (stereo not shown) [Netoglitazone]
Effect on aggregation kinetics / elongation (k+) with 50% preformed seeds: did not affect the aggregation kinetics; also recorded: does not affect the elongation rates of Aβ42 aggregation
